Data from ChEMBL document CHEMBL3792311, “In vitro and in vivo activity of ML302F: a thioenolate inhibitor of VIM-subfamily metallo -lactamases” (Medchemcomm, 2016).
pIC50: −log10 of the molar value. Active and inactive are the calls of the source. The calls are words filed in the database; no cut-off is given here.

Legend:
[1] = tested on: Pseudomonas aeruginosa; test: Potentiation of meropenem-induced antibacterial activity against VIM2 carbapenemase producing multidrug-resistant Pseudomonas aeruginosa 14 clinical isolate assessed as MIC of meropenem at 1:8 meropenem:compound ratio by broth microtiter dilution method; format: functional
[2] = tested on: Pseudomonas aeruginosa; test: Potentiation of meropenem-induced antibacterial activity against VIM2 carbapenemase producing multidrug-resistant Pseudomonas aeruginosa 16 clinical isolate assessed as MIC of meropenem at 1:8 meropenem:compound ratio by broth microtiter dilution method; format: functional
[3] = tested on: Pseudomonas aeruginosa; test: Potentiation of meropenem-induced antibacterial activity against VIM2 carbapenemase producing multidrug-resistant Pseudomonas aeruginosa 27 clinical isolate assessed as MIC of meropenem at 1:8 meropenem:compound ratio by broth microtiter dilution method; format: functional
[4] = tested on: Klebsiella pneumoniae; test: Potentiation of meropenem-induced antibacterial activity against VIM1 carbapenemase producing multidrug-resistant Klebsiella pneumoniae GR54 clinical isolate at 1:8 meropenem:compound ratio by checkerboard method; format: functional
[5] = tested on: Klebsiella pneumoniae; test: Potentiation of meropenem-induced antibacterial activity against VIM1 carbapenemase producing multidrug-resistant Klebsiella pneumoniae 177 clinical isolate at 1:8 meropenem:compound ratio by checkerboard method; format: functional
[6] = tested on: Providencia stuartii; test: Potentiation of meropenem-induced antibacterial activity against VIM1 carbapenemase producing multidrug-resistant Providencia stuartii 70 clinical isolate at 1:8 meropenem:compound ratio by checkerboard method; format: functional
[7] = tested on: Klebsiella pneumoniae; test: Potentiation of meropenem-induced antibacterial activity against VIM1 carbapenemase producing multidrug-resistant Klebsiella pneumoniae 177 clinical isolate assessed as MIC of meropenem at 1:8 meropenem:compound ratio by broth microtiter dilution method; format: functional
[8] = tested on: Providencia stuartii; test: Potentiation of meropenem-induced antibacterial activity against VIM1 carbapenemase producing multidrug-resistant Providencia stuartii 67 clinical isolate assessed as MIC of meropenem at 1:8 meropenem:compound ratio by broth microtiter dilution method; format: functional
[9] = tested on: Pseudomonas aeruginosa; test: Potentiation of meropenem-induced antibacterial activity against VIM2 carbapenemase producing multidrug-resistant Pseudomonas aeruginosa 47 clinical isolate assessed as MIC of meropenem at 1:8 meropenem:compound ratio by broth microtiter dilution method; format: functional
[10] = tested on: Pseudomonas aeruginosa; test: Potentiation of meropenem-induced antibacterial activity against VIM2 carbapenemase producing multidrug-resistant Pseudomonas aeruginosa 50 clinical isolate assessed as MIC of meropenem at 1:8 meropenem:compound ratio by broth microtiter dilution method; format: functional
[11] = tested on: Pseudomonas aeruginosa; test: Potentiation of meropenem-induced antibacterial activity against VIM2 carbapenemase producing multidrug-resistant Pseudomonas aeruginosa GR58 clinical isolate assessed as MIC of meropenem at 1:8 meropenem:compound ratio by broth microtiter dilution method; format: functional
[12] = tested on: Pseudomonas aeruginosa; test: Potentiation of meropenem-induced antibacterial activity against VIM2 carbapenemase producing multidrug-resistant Pseudomonas aeruginosa 11 clinical isolate assessed as MIC of meropenem at 1:8 meropenem:compound ratio by broth microtiter dilution method; format: functional
[13] = tested on: Klebsiella pneumoniae; test: Potentiation of meropenem-induced antibacterial activity against VIM4 carbapenemase producing multidrug-resistant Klebsiella pneumoniae 196 clinical isolate at 1:8 meropenem:compound ratio by checkerboard method; format: functional
[14] = tested on: Klebsiella pneumoniae; test: Potentiation of meropenem-induced antibacterial activity against VIM4 carbapenemase producing multidrug-resistant Klebsiella pneumoniae 120 clinical isolate infected in Galleria mellonella larvae assessed as survival rate at 4.8 mg/kg measured at 96 hrs; format: functional; details: Klebsiella pneumoniae, 120, 96 h
[15] = Inhibition of beta-lactamase VIM-2 (unknown origin)
[16] = tested on: Klebsiella pneumoniae; test: Antibacterial activity against VIM4 carbapenemase producing multidrug-resistant Klebsiella pneumoniae 120 clinical isolate infected in Galleria mellonella larvae assessed as survival rate at 4.8 mg/kg measured at 96 hrs; format: functional, organism-based
[17] = tested on: Escherichia coli; test: Antibacterial activity against VIM4 carbapenemase producing multidrug-resistant Escherichia coli 98 clinical isolate infected in Galleria mellonella larvae assessed as survival rate at 4.8 mg/kg measured at 96 hrs; format: functional, organism-based
[18] = tested on: Pseudomonas aeruginosa; test: Potentiation of meropenem-induced antibacterial activity against VIM2 carbapenemase producing multidrug-resistant Pseudomonas aeruginosa GR57 clinical isolate infected in Galleria mellonella larvae assessed as relative risk of survival at 4.8 mg/kg measured at 96 hrs relative to control; format: functional
[19] = tested on: Klebsiella pneumoniae; test: Antibacterial activity against VIM1 carbapenemase producing multidrug-resistant Klebsiella pneumoniae GR54 clinical isolate up to 512 mg/L by broth microtiter dilution method; format: functional, organism-based
[20] = tested on: Klebsiella pneumoniae; test: Antibacterial activity against VIM1 carbapenemase producing multidrug-resistant Klebsiella pneumoniae 177 clinical isolate up to 512 mg/L by broth microtiter dilution method; format: functional, organism-based
[21] = tested on: Pseudomonas aeruginosa; test: Antibacterial activity against VIM2 carbapenemase producing multidrug-resistant Pseudomonas aeruginosa 47 clinical isolate up to 512 mg/L by broth microtiter dilution method; format: functional, organism-based
[22] = tested on: Pseudomonas aeruginosa; test: Antibacterial activity against VIM2 carbapenemase producing multidrug-resistant Pseudomonas aeruginosa 50 clinical isolate up to 512 mg/L by broth microtiter dilution method; format: functional, organism-based
[23] = tested on: Pseudomonas aeruginosa; test: Antibacterial activity against VIM2 carbapenemase producing multidrug-resistant Pseudomonas aeruginosa GR64 clinical isolate up to 512 mg/L by broth microtiter dilution method; format: functional, organism-based
[24] = tested on: Pseudomonas aeruginosa; test: Antibacterial activity against VIM2 carbapenemase producing multidrug-resistant Pseudomonas aeruginosa 9 clinical isolate up to 512 mg/L by broth microtiter dilution method; format: functional, organism-based
[25] = tested on: Pseudomonas aeruginosa; test: Antibacterial activity against VIM2 carbapenemase producing multidrug-resistant Pseudomonas aeruginosa 12 clinical isolate up to 512 mg/L by broth microtiter dilution method; format: functional, organism-based
[26] = tested on: Pseudomonas aeruginosa; test: Antibacterial activity against VIM2 carbapenemase producing multidrug-resistant Pseudomonas aeruginosa 13 clinical isolate up to 512 mg/L by broth microtiter dilution method; format: functional, organism-based
[27] = tested on: Pseudomonas aeruginosa; test: Antibacterial activity against VIM2 carbapenemase producing multidrug-resistant Pseudomonas aeruginosa 15 clinical isolate up to 512 mg/L by broth microtiter dilution method; format: functional, organism-based
[28] = tested on: Pseudomonas aeruginosa; test: Antibacterial activity against VIM2 carbapenemase producing multidrug-resistant Pseudomonas aeruginosa 16 clinical isolate up to 512 mg/L by broth microtiter dilution method; format: functional, organism-based
[29] = tested on: Escherichia coli; test: Antibacterial activity against VIM4 carbapenemase producing multidrug-resistant Escherichia coli 98 clinical isolate up to 512 mg/L by broth microtiter dilution method; format: functional, organism-based
[30] = tested on: Pseudomonas aeruginosa; test: Potentiation of meropenem-induced antibacterial activity against VIM2 carbapenemase producing multidrug-resistant Pseudomonas aeruginosa 50 clinical isolate at 1:8 meropenem:compound ratio by checkerboard method; format: functional
[31] = tested on: Pseudomonas aeruginosa; test: Potentiation of meropenem-induced antibacterial activity against VIM2 carbapenemase producing multidrug-resistant Pseudomonas aeruginosa 3 clinical isolate at 1:8 meropenem:compound ratio by checkerboard method; format: functional
[32] = tested on: Pseudomonas aeruginosa; test: Potentiation of meropenem-induced antibacterial activity against VIM2 carbapenemase producing multidrug-resistant Pseudomonas aeruginosa 8 clinical isolate at 1:8 meropenem:compound ratio by checkerboard method; format: functional
[33] = tested on: Pseudomonas aeruginosa; test: Potentiation of meropenem-induced antibacterial activity against VIM2 carbapenemase producing multidrug-resistant Pseudomonas aeruginosa 13 clinical isolate at 1:8 meropenem:compound ratio by checkerboard method; format: functional
[34] = tested on: Pseudomonas aeruginosa; test: Potentiation of meropenem-induced antibacterial activity against VIM2 carbapenemase producing multidrug-resistant Pseudomonas aeruginosa 16 clinical isolate at 1:8 meropenem:compound ratio by checkerboard method; format: functional
[35] = tested on: Pseudomonas aeruginosa; test: Potentiation of meropenem-induced antibacterial activity against VIM2 carbapenemase producing multidrug-resistant Pseudomonas aeruginosa 27 clinical isolate at 1:8 meropenem:compound ratio by checkerboard method; format: functional
[36] = tested on: Klebsiella pneumoniae; test: Potentiation of meropenem-induced antibacterial activity against VIM4 carbapenemase producing multidrug-resistant Klebsiella pneumoniae 128 clinical isolate at 1:8 meropenem:compound ratio by checkerboard method; format: functional

Structure (SMILES): O=C(O)/C(S)=C/c1c(Cl)ccc(Cl)c1Cl
- MIC [1]: 2 µg/mL
- MIC [2]: 16 µg/mL
- MIC [3]: 16 µg/mL
- fractional inhibitory concentration index (FICI) [4]: 0.09
- fractional inhibitory concentration index (FICI) [5]: 1.02
- fractional inhibitory concentration index (FICI) [6]: 0.14
- MIC [7]: 1 µg/mL
- MIC [8]: 1 µg/mL
- MIC [9]: 1 µg/mL
- MIC [10]: 8 µg/mL
- MIC [11]: 8 µg/mL
- MIC [12]: 2 µg/mL
- fractional inhibitory concentration index (FICI) [13]: 0.08
- survival at 4.8 mg/kg [14]: 98%
- pIC50 [15]: 6.52
- Activity [16]: Active
- Activity [17]: Active
- fold change (FC) [18]: 0.28
- Activity [19]: inactive
- Activity [20]: inactive
- Activity [21]: inactive
- Activity [22]: inactive
- Activity [23]: inactive
- Activity [24]: inactive
- Activity [25]: inactive
- Activity [26]: inactive
- Activity [27]: inactive
- Activity [28]: inactive
- Activity [29]: inactive
- fractional inhibitory concentration index (FICI) [30]: 0.38
- fractional inhibitory concentration index (FICI) [31]: 0.25
- fractional inhibitory concentration index (FICI) [32]: 0.38
- fractional inhibitory concentration index (FICI) [33]: 0.75
- fractional inhibitory concentration index (FICI) [34]: 0.5
- fractional inhibitory concentration index (FICI) [35]: 0.5
- fractional inhibitory concentration index (FICI) [36]: 0.27
